Experimental data as given in patent US12091405B2, “Substituted pyrazole compounds as indoleamine 2,3-dioxygenase inhibitors” (Merck Sharp & Dohme LLC, priority 2018, dated 2024).

Columns and labels:
IDO1 [1] = biological target: T1, IDO1 (Homo sapiens, UniProt P14902); assay: IDO1 Cellular Assay in HeLa Cells Stimulated with IFNγ; type: cell-based; details: IFNγ 100 ng/mL, 300 uM L-tryptophan, about 48 hours, fluorescence readout, read-out: IDO1 HELA Cell Assay, IC50
IDO1 [2] = biological target: T1, IDO1; assay: IDO1 Human Whole Blood Assay; type: cell-based; parameters: Human whole blood was drawn in sodium heparin coated tubes from healthy internal donors; from tissue; host or cells: human whole blood from healthy donors, stimulated with LPS and IFNγ; details: LPS and IFNγ 100 ng/mL, overnight (18 h), kynurenine by LC/MS/MS
Procedure: IDO1 Human Whole Blood Assay
Compounds to be tested were serially diluted in ten 3-fold steps in DMSO starting from 10 mM. 3 μL of compound dilutions or DMSO alone were then dispensed from the dilution plate into a polypropylene 96-well assay plate containing 97 μL of RPMI medium using an Echo 555 acoustic liquid handler (Labcyte). LPS and IFNγ was prepared in RPMI medium to a 10× of final conc. (1000 ng/mL), final concentration is 100 ng/mL.
Human whole blood was drawn in sodium heparin coated tubes from healthy internal donors. 240 μL of blood was transferred to each of the wells of a v-bottom 96 well plate. 30 μL of compound was transferred from intermediate dilution plate, and incubated for 15 min. 30 μL from stimulants was then transferred to blood and mixed thoroughly. Plate was covered with breathable membrane and incubated at 37° C. for overnight (18 h).
On day 2, isotope labeled standard solutions of kynurenine and tryptophan was made in water at 10× concentration and 30 μL was added to the blood at 3 μM final concentration. The assay plates were centrifuged at 300×G for 10 min with no brake to separate plasma from red blood cells. 60 μL of plasma samples was removed without disturbing red blood cells. Plasma was diluted with RPMI in 1:1 ratio and proteins were precipitated out with two volumes of Acetonitrile. The plates were centrifuged at 4000×G for 60 min. 20 μL of supernatant was carefully transferred to a 384 well plate containing 40 μL of 0.1% formic acid in water and analyzed by LC/MS/MS.
LC/MS/MS analyses were performed using Thermo Fisher's LX4-TSQ Quantum Ultra system. This system consists of four Agilent binary high-performance liquid chromatography (HPLC) pumps and a TSQ Quantum Ultra triple quadrupole MS/MS instrument. For each sample, 5 μL were injected onto an Atlantis T3 column (2.1 mm×150 mm, 3 μm particle size) from Waters. The mobile phase gradient pumped at 0.8 mL/min was used to elute the analytes from the column at 25 EC. The elution started at 0% B increasing linearly to 25% B at 6.5 min, holding at 25% for 1 min, re-equilibrating to 10 min. Mobile phase A consisted of 0.1% formic acid in water. Mobile phase B consisted of 0.1% of formic acid in acetonitrile. Data were acquired in positive mode using a HESI interface. The operational parameters for the TSQ Quantum Ultra instrument were a spray voltage of 4000 V, capillary temperature of 380° C., vaporizer temperature 400° C., shealth gas 60 arbitrary units, Aux gas 20 arbitrary units, tube lens 85 and collision gas 1.2 mTorr. SRM chromatograms of kynurenine (Qi: 209.2>Q3:94.0) and internal standard (Qi: 215.3>Q3:98.2) were collected for 90 sec. The peak area was integrated by Xcalibur Quan software. The ratios between the kynurenine generated in the reaction and 2D6-Kynurenine spiked-in internal standard were used to generate percentage inhibition and IC50 values. Compounds were titrated and IC50's were calculated by 4 parameter sigmoidal curve fitting formula.
The biological activity data of selective compounds using the IDO1 human whole blood assay described above are summarized in the table below.

T1 sequence (P14902 whole entry): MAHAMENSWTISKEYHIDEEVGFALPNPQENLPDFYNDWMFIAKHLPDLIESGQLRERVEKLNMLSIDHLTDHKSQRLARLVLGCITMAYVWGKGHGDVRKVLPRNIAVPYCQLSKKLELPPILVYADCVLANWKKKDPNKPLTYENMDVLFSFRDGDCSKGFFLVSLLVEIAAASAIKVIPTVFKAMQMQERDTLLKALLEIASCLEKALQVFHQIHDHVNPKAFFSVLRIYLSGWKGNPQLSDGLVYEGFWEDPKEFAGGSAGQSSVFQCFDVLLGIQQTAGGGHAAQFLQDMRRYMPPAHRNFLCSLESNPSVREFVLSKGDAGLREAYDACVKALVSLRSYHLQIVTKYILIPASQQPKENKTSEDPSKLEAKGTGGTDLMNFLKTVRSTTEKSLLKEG

Compound `Cc1cccc(C2CCN(C(=O)Cn3nc(C(=O)N4CC[C@H](O)[C@H](F)C4)c4c3C[C@H]3C[C@@H]43)CC2)c1C` [Example 26, 1-[4-(2,3-dimethylphenyl)piperidin-1-yl]-2-{(3bR,4aR)-3-[(3R,4S)-3-fluoro-4-hydroxypiperidine-1-carbonyl]-3b,4,4a,5-tetrahydro-1H-cyclopropa[3,4]cyclopenta[1,2-c]pyrazol-1-yl}ethan-1-one] has an IC50 (IDO1 [1]) of 1.8 nM and an IC50 (IDO1 [2]) of 258 nM.

Compound `Cc1cccc(C2(F)CCN(C(=O)Cn3nc(C(=O)N4CCC(O)CC4)c4c3CCC4)CC2)c1C` [Example 9, 1-(4-(2,3-dimethylphenyl)-4-fluoropiperidin-1-yl)-2-(3-(4-hydroxypiperidine-1-carbonyl)-5,6-dihydrocyclopenta[c]pyrazol-1(4H)-yl)ethanone] has an IC50 (IDO1 [1]) of 11.1 nM and an IC50 (IDO1 [2]) of 3370 nM.

`Cc1cccc(C2CCN(C(=O)Cn3nc(C(=O)N4CC[C@@H](O)[C@H](C)C4)c4c3C[C@H]3C[C@@H]43)CC2)c1C` [Example 19, 1-[4-(2,3-dimethylphenyl)piperidin-1-yl]-2-{(3bR,4aR)-3-[(3R,4R)-4-hydroxy-3-methylpiperidine-1-carbonyl]-3b,4,4a,5-tetrahydro-1H-cyclopropa[3,4]cyclopenta[1,2-c]pyrazol-1-yl}ethan-1-one] showed an IC50 (IDO1 [1]) of 0.9 nM and an IC50 (IDO1 [2]) of 219 nM.

`Cc1c(C2CCN(C(=O)Cn3nc(C(=O)N4C[C@@H](C)O[C@@H](C)C4)c4c3CCC4)CC2)cccc1C(F)(F)F` [Example 83, 2-{3-[(2R,6S)-2,6-dimethylmorpholine-4-carbonyl]-5,6-dihydrocyclopenta[c]pyrazol-1(4H)-yl}-1-{4-[2-methyl-3-(trifluoromethyl)phenyl]piperidin-1-yl}ethan-1-one] gave an IC50 (IDO1 [1]) of 4.2 nM and an IC50 (IDO1 [2]) of 1850 nM.

For `Cc1cccc(C2CCN(C(=O)Cn3nc(C(=O)N4CC[C@H](O)[C@@H](F)C4)c4c3CCC4)CC2)c1C` [Example 37, 1-(4-(2,3-dimethylphenyl)piperidin-1-yl)-2-(3-((3S,4S)-3-fluoro-4-hydroxypiperidine-1-carbonyl)-5,6-dihydrocyclopenta[c]pyrazol-1(4H)-yl)ethanone], the IC50 (IDO1 [1]) was 1.8 nM and the IC50 (IDO1 [2]) was 84.9 nM.

Compound `Cc1cccc(C2CCN(C(=O)Cn3nc(C(=O)N4CC[C@H](O)[C@@H](F)C4)c4c3CCCC4)CC2)c1C` [Example 32, 1-(4-(2,3-dimethylphenyl)piperidin-1-yl)-2-(3-((3S,4S)-3-fluoro-4-hydroxypiperidine-1-carbonyl)-4,5,6,7-tetrahydro-1H-indazol-1-yl) ethanone] has an IC50 (IDO1 [1]) of 0.8 nM and an IC50 (IDO1 [2]) of 83.7 nM.

`Cc1cccc(C2CCN(C(=O)Cn3nc(C(=O)N4CC[C@H](O)[C@H](F)C4)c4c3CCC4)CC2)c1C` [Example 44, 1-(4-(2,3-dimethylphenyl)piperidin-1-yl)-2-(3-((3R,4S)-3-fluoro-4-hydroxypiperidine-1-carbonyl)-5,6-dihydrocyclopenta[c]pyrazol-1(4H)-yl)ethanone] showed an IC50 (IDO1 [1]) of 7.3 nM and an IC50 (IDO1 [2]) of 733 nM.

With `Cc1cccc(C2CCN(C(=O)Cn3nc(C(=O)N4CC[C@@H](O)[C@@H](C)C4)c4c3C[C@H]3C[C@@H]43)CC2)c1C` [Example 22, 1-[4-(2,3-dimethylphenyl)piperidin-1-yl]-2-{(3bR,4aR)-3-[(3S,4R)-4-hydroxy-3-methylpiperidine-1-carbonyl]-3b,4,4a,5-tetrahydro-1H-cyclopropa[3,4]cyclopenta[1,2-c]pyrazol-1-yl}ethan-1-one] the IC50 (IDO1 [1]) was 1.1 nM and the IC50 (IDO1 [2]) was 69.1 nM.

With `Cc1c(Cl)cccc1C1CCN(C(=O)Cn2nc(C(=O)N3CCN(C(=O)CO)CC3)c3c2C[C@H]2C[C@@H]32)CC1` [Example 17, 1-(4-(3-chloro-2-methylphenyl)piperidin-1-yl)-2-((3bR,4aR)-3-(4-(2-hydroxyacetyl)piperazine-1-carbonyl)-3b,4,4a,5-tetrahydro-1H-cyclopropa[3,4]cyclopenta[1,2-c]pyrazol-1-yl)ethanone] the IC50 (IDO1 [1]) was 1 nM and the IC50 (IDO1 [2]) was 59.6 nM.

`Cc1cccc(C2CCN(C(=O)Cn3nc(C(=O)N4CCC(O)(CF)CC4)c4c3CCC4)CC2)c1C` [Example 31, 1-[4-(2,3-dimethylphenyl)-1-piperidyl]-2-[3-[4-(fluoromethyl)-4-hydroxy-piperidine-1-carbonyl]-5,6-dihydro-4H-cyclopenta[c]pyrazol-1-yl]ethanone] was tested, and the IC50 (IDO1 [1]) was 5.1 nM and the IC50 (IDO1 [2]) was 87.6 nM.

Work on `Cc1c(F)ccc(C2CCN(C(=O)Cn3nc(C(=O)N4C[C@@H](C)O[C@@H](C)C4)c4c3CCC4)CC2)c1C` [Example 172, 2-{3-[(2R,6S)-2,6-dimethylmorpholine-4-carbonyl]-5,6-dihydrocyclopenta[c]pyrazol-1(4H)-yl}-1-[4-(4-fluoro-2,3-dimethylphenyl)piperidin-1-yl]ethan-1-one] yielded an IC50 (IDO1 [1]) of 1.7 nM and an IC50 (IDO1 [2]) of 434 nM.

For `Cc1cccc(C2CCN(C(=O)Cn3nc(C(=O)N4CCN(C(=O)CO)CC4)c4c3CCCC4)CC2)c1C` [Example 42, 1-(4-(2,3-dimethylphenyl)piperidin-1-yl)-2-(3-(4-(2-hydroxyacetyl)piperazine-1-carbonyl)-4,5,6,7-tetrahydro-1H-indazol-1-yl)ethanone], the IC50 (IDO1 [1]) was 3.7 nM and the IC50 (IDO1 [2]) was 304 nM.

In the case of `Cc1cccc(C2CCN(C(=O)Cn3nc(C(=O)N4CCC(OCCO)CC4)c4c3CCC4)CC2)c1C` [Example 33, 1-(4-(2,3-dimethylphenyl)piperidin-1-yl)-2-(3-(4-(2-hydroxyethoxy)piperidine-1-carbonyl)-5,6-dihydrocyclopenta[c]pyrazol-1(4H)-yl) ethanone], the IC50 (IDO1 [1]) is reported as 1.1 nM and the IC50 (IDO1 [2]) is reported as 30.9 nM.

Compound `Cc1cccc(C2CCN(C(=O)Cn3nc(C(=O)N4CCO[C@H](CO)C4)c4c3CCC4)CC2)c1C` [Example 43, (S)-1-(4-(2,3-dimethylphenyl)piperidin-1-yl)-2-(3-(2-(hydroxymethyl)morpholine-4-carbonyl)-5,6-dihydrocyclopenta[c]pyrazol-1(4H)-yl) ethanone] has an IC50 (IDO1 [1]) of 5.5 nM and an IC50 (IDO1 [2]) of 192 nM.

With `Cc1cccc(C2CCN(C(=O)Cn3nc(C(=O)N4CC[C@H](O)[C@H](C)C4)c4c3C[C@H]3C[C@@H]43)CC2)c1C` [Example 20, 1-[4-(2,3-dimethylphenyl)piperidin-1-yl]-2-{(3bR,4aR)-3-[(3R,4S)-4-hydroxy-3-methylpiperidine-1-carbonyl]-3b,4,4a,5-tetrahydro-1H-cyclopropa[3,4]cyclopenta[1,2-c]pyrazol-1-yl}ethan-1-one] the IC50 (IDO1 [1]) was 0.9 nM and the IC50 (IDO1 [2]) was 53.3 nM.

With `Cc1cccc(C2CCN(C(=O)Cn3nc(C(=O)N4CC[C@H](O)[C@@H](C)C4)c4c3C[C@H]3C[C@@H]43)CC2)c1C` [Example 21, 1-[4-(2,3-dimethylphenyl)piperidin-1-yl]-2-{(3bR,4aR)-3-[(3S,4S)-4-hydroxy-3-methylpiperidine-1-carbonyl]-3b,4,4a,5-tetrahydro-1H-cyclopropa[3,4]cyclopenta[1,2-c]pyrazol-1-yl}ethan-1-one] the IC50 (IDO1 [1]) was 0.9 nM and the IC50 (IDO1 [2]) was 328 nM.

With `Cc1cccc(C2CCN(C(=O)Cn3nc(C(=O)N4CC[C@@H](O)[C@@H](F)C4)c4c3C[C@H]3C[C@@H]43)CC2)c1C` [Example 25, 1-[4-(2,3-dimethylphenyl)piperidin-1-yl]-2-{(3bR,4aR)-3-[(3S,4R)-3-fluoro-4-hydroxypiperidine-1-carbonyl]-3b,4,4a,5-tetrahydro-1H-cyclopropa[3,4]cyclopenta[1,2-c]pyrazol-1-yl}ethan-1-one] the IC50 (IDO1 [1]) was 1.6 nM and the IC50 (IDO1 [2]) was 192 nM.

Work on `Cc1cccc(C2CCN(C(=O)Cn3nc(C(=O)N4CCC(O)CC4)c4c3CCC4)CC2(F)F)c1C` (single isomer, unassigned) [Example 14, 1-(4-(2,3-dimethylphenyl)-3,3-difluoropiperidin-1-yl)-2-(3-(4-hydroxypiperidine-1-carbonyl)-5,6-dihydrocyclopenta[c]pyrazol-1(4H)-yl)ethanone] yielded an IC50 (IDO1 [1]) of 3.4 nM and an IC50 (IDO1 [2]) of 1390 nM.
